Broadly, the Km is the substrate concentration at which the rate is half of its maximum.

Experimental findings from US20030180827A1, “Highly sensitive and continuous protein tyrosine phosphatase test using 6,8-difluoro-4-methylumbelliferyl phosphate” (Aventis Pharma Deutschland Gmbh., priority 2002, published 2003) are described below.

Common to all, as to format: biochemical
In assay [1] the target is T1, PTP1B (Homo sapiens, UniProt P18031).
T1 sequence (P18031 1-435): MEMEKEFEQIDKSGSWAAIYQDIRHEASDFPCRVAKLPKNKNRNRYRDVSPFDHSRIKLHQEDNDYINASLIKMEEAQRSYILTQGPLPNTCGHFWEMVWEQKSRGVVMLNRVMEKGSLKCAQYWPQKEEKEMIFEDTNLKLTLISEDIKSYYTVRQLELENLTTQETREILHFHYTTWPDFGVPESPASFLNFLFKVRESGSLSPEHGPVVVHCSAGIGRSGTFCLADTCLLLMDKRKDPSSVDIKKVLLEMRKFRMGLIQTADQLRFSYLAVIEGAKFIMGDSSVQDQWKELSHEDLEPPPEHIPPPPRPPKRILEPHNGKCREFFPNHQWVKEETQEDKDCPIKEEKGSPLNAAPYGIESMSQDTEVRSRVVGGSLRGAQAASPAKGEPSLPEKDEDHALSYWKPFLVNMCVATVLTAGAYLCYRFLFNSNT
Put plainly: malachite green phosphopeptide test. Conditions: malachite green phosphopeptide test method, for comparison. The text has this:
The malachite green phosphopeptide test has been described as another method for measuring the activity of protein tyrosine phosphatases. Martin et al. (1985) Journal of Biological Chemistry, 260, pp. 14932 and Harder et al. (1994) Biochemical Journal, 298, pp. 395. In this method, the inorganic phosphate which the phosphatase has released from its substrate peptide is detected photometrically using the malachite green reagent. […]
The test for determining the inhibitory effect of the active compound 2,2-dioxo-2,3dihydro-2,6-benzo[1,2,3]oxathiazol-5-yl)-(9-ethyl-9H-carbazol-3-ylmethyl)amine using the DiFMUP test takes place in a black microtiter plate at a temperature of 37° C. […] The phosphatase reaction is started by adding 15 μl of 1 mM DiFMUP solution and the fluorescence (measured in RFU) is measured, at time intervals of 30 seconds and over a period of 15 minutes, in a fluorescence microtiter plate photometer at 358/455 nm. The measure of the enzyme activity is the increase in fluorescence, which can be depicted graphically (FIG. 1). […] The inhibitor concentration at which the active compound 2,2-dioxo-2,3-dihydro-2,6-benzo[1,2,3]oxathiazol-5-yl)-(9-ethyl-9H-carbazol-3-ylmethyl)amine reduces the activity of the PTP1B by half (IC-50) can be determined to be 3.8 μM. The IC-50 values using the pNPP test method and the malachite green phosphopeptide test were determined for comparison. […]

Assay [2] has as its target T1, PTP1B. The experiment in a line: pNPP test method. To be noted: for comparison. From the text: The prior art discloses methods for measuring the activity of a protein tyrosine phosphatase using the substrate p-nitrophenyl phosphate (“p-NPP”). These methods are to be found in standard biochemical manuals such as Current Protocols in Protein Science: John E. Coligan (ed.), Ben M. Dunn (ed.), Hidde L. Ploegh (ed.), David W. Speicher (ed.), Paul T. Wingfield (ed.); SBN: 0-471-11184-8; loose-leaf pages, continuously updated; published by John Wiley & Sons. In these methods, the action of a phosphatase forms p-nitrophenol from the p-NPP. The p-nitrophenol thus produced can be measured photometrically on the basis of its intense yellow color in the alkaline range.
However, this test method has some unfavorable features. […] The increase in the pH leads to the color of the resulting p-nitrophenol changing to yellow, the absorption of which is determined photometrically and is a measure of the quantity of p-nitrophenol which is present. […]
The test for determining the inhibitory effect of the active compound 2,2-dioxo-2,3dihydro-2,6-benzo[1,2,3]oxathiazol-5-yl)-(9-ethyl-9H-carbazol-3-ylmethyl)amine using the DiFMUP test takes place in a black microtiter plate at a temperature of 37° C. […] The measure of the enzyme activity is the increase in fluorescence, which can be depicted graphically (FIG. 1). […]

For assay [3], the target named is T2, protein tyrosine phosphatase PTP1B (Homo sapiens, UniProt P18031).
T2 sequence (P18031 1-435): T1 sequence (P18031 1-435)
Put plainly: DiFMUP test, inhibition of PTP1B. Conditions: DiFMUP substrate, 100 ng PTP1B/ml, pH 6.9, 37° C.; read-out: inhibitor concentration that reduces the activity of the PTP1B by half (IC-50). On the procedure:
The test for determining the inhibitory effect of the active compound 2,2-dioxo-2,3dihydro-2,6-benzo[1,2,3]oxathiazol-5-yl)-(9-ethyl-9H-carbazol-3-ylmethyl)amine using the DiFMUP test takes place in a black microtiter plate at a temperature of 37° C. 120 μl volumes of reaction buffer are provided, with the buffer containing the following components: 100 ng of protein tyrosine phosphatase PTP1B/ml; 50 mM Hepes, pH 6.9; 150 mM NaCl; 1 mM EDTA; 2 mM DTT. To this are added 15 μl of the inhibitor solution to be tested, at a variety of concentrations. The phosphatase reaction is started by adding 15 μl of 1 mM DiFMUP solution and the fluorescence (measured in RFU) is measured, at time intervals of 30 seconds and over a period of 15 minutes, in a fluorescence microtiter plate photometer at 358/455 nm. The measure of the enzyme activity is the increase in fluorescence, which can be depicted graphically (FIG. 1). The reduction in enzymic activity which is obtained depends on the concentration of inhibitor employed. The inhibitor concentration at which the active compound 2,2-dioxo-2,3-dihydro-2,6-benzo[1,2,3]oxathiazol-5-yl)-(9-ethyl-9H-carbazol-3-ylmethyl)amine reduces the activity of the PTP1B by half (IC-50) can be determined to be 3.8 μM. The IC-50 values using the pNPP test method and the malachite green phosphopeptide test were determined for comparison. […]

In assay [4] the target is T2, protein tyrosine phosphatase PTP1B. Put plainly: Concentration dependence of the cleavage of DiFMUP by PTP1B (Lineweaver-Burk analysis). Conditions: DiFMUP as substrate 0-200 μM, 100 ng PTP1b/ml, pH 6.9, 37° C. As for the experimental part:
The reaction takes place in a black microtiter plate at a temperature of 37° C. 135 μl of reaction buffer are provided in each case, with this buffer containing the following components: 100 ng of protein tyrosine phosphatase PTP1b/ml; 50 mM Hepes, pH 6.9; 150 mM NaCl; 1 mM EDTA; 2 mM DTT. The phosphatase reaction is started by adding 15 μl of DiFMUP solution, which contains the substrate at 10 times the final concentration which is desired in the test mixture (FIG. 2: 0-200 μM), and the fluorescence is measured, at time intervals of 30 seconds for a period of 15 minutes, in a fluorescence microtiter plate photometer at 358/455 nm. The measure of the enzyme activity is the increase in fluorescence (measured in RFU) in dependence on the DiFMUP concentration, which can be depicted graphically (FIG. 2). This graph can subsequently be used to determine the kinetic constants of the enzyme reaction by means of a Lineweaver-Burk analysis. […] This analysis can also be carried out in an analogous manner for other tyrosine phosphatases.

As for `CCn1c2ccccc2c2cc(CNc3ccc4c(c3)NS(=O)(=O)O4)ccc21` [2,2-dioxo-2,3-dihydro-2,6-benzo[1,2,3]oxathiazol-5-yl)-(9-ethyl-9H-carbazol-3-ylmethyl)amine], the IC50 on PTP1B [1] turned out to be 3.9 µM; against PTP1B [2] it was 5.1 µM; in assay [3], 3.8 µM.
For `Cc1cc(=O)oc2c(F)c(OP(=O)(O)O)c(F)cc12` [DiFMUP, 6,8-difluoro-4-methylumbelliferyl phosphate], in assay [4], the Michaelis constant (Km) turned out to be 19 µM and the Vmax was 388000 RFU sec-1 mg-1.
